Each compound was assayed against T1, Human TREX1 enzyme (amino acids 1-242) (Homo sapiens, UniProt Q9NSU2) (assay: Human TREX1 enzymatic assay with dsDNA native oligonucleotide (Picogreen fluorescence)). Details: 2 mM dithiothreitol in assay buffer; 50 nM dsDNA oligonucleotide; 30 min preincubation at 25° C.; read-out: TREX1/Human + DTT IC50 AVG.
T1 construct: Human TREX1 enzyme (amino acids 1-242)
T1 sequence (Q9NSU2 1-242): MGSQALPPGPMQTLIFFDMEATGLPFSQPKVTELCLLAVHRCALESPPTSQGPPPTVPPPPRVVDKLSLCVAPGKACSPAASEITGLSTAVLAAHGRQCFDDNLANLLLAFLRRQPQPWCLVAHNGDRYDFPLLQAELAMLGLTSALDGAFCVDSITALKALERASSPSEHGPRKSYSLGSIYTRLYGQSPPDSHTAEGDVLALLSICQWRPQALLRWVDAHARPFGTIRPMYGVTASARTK
Type: biochemical
Method in brief: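 Remaining dsDNA quantified by Picogreen fluorescence after EDTA quench, with no-enzyme and DMSO wells as controls. Reactions used 50 nM annealed oligonucleotide for 5–15 min at 25 °C, after a 30 min compound–enzyme preincubation (0.8–0.16 nM TREX1; 2% DMSO; pH 7.7 Tris, 5 mM MgCl2).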

Row | Structure (SMILES) | IC50
1 | COc1cc(-c2nc3cc(N4CCC(c5ccccc5)CC4)ccc3[nH]2)cc(O)c1O [Example 49, 3-methoxy-5-(5-(4-phenylpiperidin-1-yl)-1H-benzo[d]imidazol-2-yl)benzene-1,2-diol] | > 100 µM
2 | COc1cc(-c2nc3cc(N4CCN(Cc5ccccc5)CC4)ccc3[nH]2)cc(O)c1O [Example 59, 5-(5-(4-benzylpiperazin-1-yl)-1H-benzo[d]imidazol-2-yl)-3-methoxybenzene-1,2-diol] | 10 to 100 µM
3 | COc1cc(-c2nc3ccc(C(=O)Nc4cnoc4)cc3n2C2(C)COC2)c(F)c(O)c1O [Example 247, 2-(2-fluoro-3,4-dihydroxy-5-methoxyphenyl)-N-(isoxazol-4-yl)-1-(3-methyloxetan-3-yl)-1H-benzo[d]imidazole-6-carboxamide] | ≤ 0.1 µM
4 | COc1cc(-c2nc3cc(N4CCCC4)ccc3[nH]2)cc(O)c1O [Example 137, 3-methoxy-5-(5-(pyrrolidin-1-yl)-1H-benzo[d]imidazol-2-yl)benzene-1,2-diol] | 1 to 10 µM
5 | COc1cc(-c2nc3ccc(N4CCN(C)CC4)cc3n2C)cc(O)c1O [Example 38, 3-methoxy-5-(1-methyl-6-(4-methylpiperazin-1-yl)-1H-benzo[d]imidazol-2-yl)benzene-1,2-diol] | > 100 µM
6 | COc1cc(-c2nc3cc(N4CCN(S(=O)(=O)c5ccccc5)CC4)ccc3[nH]2)cc(O)c1O [Example 87, 3-methoxy-5-(5-(4-(phenylsulfonyl)piperazin-1-yl)-1H-benzo[d]imidazol-2-yl)benzene-1,2-diol] | > 100 µM
7 | COc1cc(-c2nc3cc(N4CCC(N(C)C)CC4)ccc3[nH]2)cc(O)c1O [Example 74, 5-(5-(4-(dimethylamino)piperidin-1-yl)-1H-benzo[d]imidazol-2-yl)-3-methoxybenzene-1,2-diol] | 10 to 100 µM
8 | COc1cc(-c2nc3ccncc3s2)cc(O)c1O [Example 77, 3-methoxy-5-(thiazolo[5,4-c]pyridin-2-yl)benzene-1,2-diol] | 10 to 100 µM
9 | COc1cc(-c2nc3ccccc3n2C2(C)CC2)c(F)c(O)c1O [Example 329, 3-fluoro-6-methoxy-4-(1-(1-methylcyclopropyl)-1H-benzo[d]imidazol-2-yl)benzene-1,2-diol] | 0.1 to 1 µM
10 | COc1cc(-c2nc3cc(C4CCN(C(C)=O)CC4)ccc3[nH]2)cc(O)c1O [Example 109, 1-(4-(2-(3,4-dihydroxy-5-methoxyphenyl)-1H-benzo[d]imidazol-5-yl)piperidin-1-yl)ethanone] | 10 to 100 µM
11 | COc1cc(-c2nc3ccc(C(=O)NCC4(F)CC4)cc3n2C2(C)COC2)c(F)c(O)c1O [Example 263, 2-(2-fluoro-3,4-dihydroxy-5-methoxyphenyl)-N-[(1-fluorocyclopropyl)methyl]-1-(3-methyloxetan-3-yl)-1H-1,3-benzodiazole-6-carboxamide.] | ≤ 0.1 µM
12 | COc1cc(-c2nc3cc(NC(C)=O)ccc3n2C2CCC2)c(F)c(O)c1O [Example 313, N-(1-cyclobutyl-2-(2-fluoro-3,4-dihydroxy-5-methoxyphenyl)-1H-benzo[d]imidazol-5-yl)acetamide] | 0.1 to 1 µM
13 | CNS(=O)(=O)c1ccc2[nH]c(-c3cc(O)c(O)c(OC)c3)nc2c1 [Example 20, 2-(3,4-dihydroxy-5-methoxyphenyl)-N-methyl-1H-benzo[d]imidazole-5-sulfonamide] | > 100 µM
14 | COc1cc(-c2nc3ccc(N4CCN(C(=O)c5ccccc5)CC4)cc3n2C2CCOC2)cc(O)c1O (stereo not drawn) [Example 106, (4-(2-(3,4-dihydroxy-5-methoxyphenyl)-1-(tetrahydrofuran-3-yl)-1H-benzo[d]imidazol-6-yl)piperazin-1-yl)(phenyl)methanone] | 1 to 10 µM
15 | COc1cc(-c2nc3ccncc3n2C)c(C)c(O)c1O [Example 54, 6-methoxy-3-methyl-4-(3-methyl-3H-imidazo[4,5-c]pyridin-2-yl)benzene-1,2-diol] | 10 to 100 µM
16 | COc1cc(-c2nc3cc(N4CCOC4=O)ccc3n2C2(C)COC2)c(F)c(O)c1O [Example 271, 3-(2-(2-fluoro-3,4-dihydroxy-5-methoxyphenyl)-1-(3-methyloxetan-3-yl)-1H-benzo[d]imidazol-5-yl)oxazolidin-2-one] | ≤ 0.1 µM
17 | COc1cc(-c2nc3cc(N4CCC4)ccc3[nH]2)c(C2CC2)c(O)c1O [Example 242, 4-(5-(azetidin-1-yl)-1H-benzo[d]imidazol-2-yl)-3-cyclopropyl-6-methoxybenzene-1,2-diol] | > 100 µM
18 | O=C(O)c1ccc(-c2nc3cc(N4CCN(c5cccnc5)CC4)ccc3[nH]2)cc1O [Example 119, 2-hydroxy-4-(5-(4-(pyridin-3-yl)piperazin-1-yl)-1H-benzo[d]imidazol-2-yl)benzoic acid] | 10 to 100 µM

Row | Structure (SMILES) | IC50
19 | CCc1cc2nc(-c3cc(OC)c(O)c(O)c3F)n(C3(C)COC3)c2cn1 [Example 218, 4-[6-ethyl-3-(3-methyloxetan-3-yl)-3H-imidazo[4,5-c]pyridin-2-yl]-3-fluoro-6-methoxybenzene-1,2-diol] | ≤ 0.1 µM
20 | COc1cc(-c2nc3cc(N4CCN(C(=O)c5ccccc5C(=O)O)CC4)ccc3[nH]2)cc(O)c1O [Example 155, 2-(4-(2-(3,4-dihydroxy-5-methoxyphenyl)-1H-benzo[d]imidazol-5-yl)piperazine-1-carbonyl)benzoic acid] | 10 to 100 µM
21 | COc1cc(-c2nc3ccc(C(=O)NC4CNC4)cc3n2C2(C)COC2)c(F)c(O)c1O [Example 259, N-(azetidin-3-yl)-2-(2-fluoro-3,4-dihydroxy-5-methoxyphenyl)-1-(3-methyloxetan-3-yl)-1H-1,3-benzodiazole-6-carboxamide] | ≤ 0.1 µM
22 | COc1cc(-c2nc3ncccc3n2C2(C)COC2)c(F)c(O)c1O [Example 326, 3-fluoro-6-methoxy-4-(1-(3-methyloxetan-3-yl)-1H-imidazo[4,5-b]pyridin-2-yl)benzene-1,2-diol] | 1 to 10 µM
23 | CCOc1cc(-c2nc3ccccc3n2C2CCC2)cc(O)c1O [Example 234, 5-(1-cyclobutyl-1H-1,3-benzodiazol-2-yl)-3-ethoxybenzene-1,2-diol] | 1 to 10 µM
24 | COc1cc(-c2nc3cc(O)ccc3n2C2CCC2)c(C)c(O)c1O [Example 334, 4-(1-cyclobutyl-5-hydroxy-1H-benzo[d]imidazol-2-yl)-6-methoxy-3-methylbenzene-1,2-diol] | 0.1 to 1 µM
25 | COc1cc(-c2nc3ccccc3n2C2(C)COC2)c(F)c(O)c1O [Example 232, 3-fluoro-6-methoxy-4-(1-(3-methyloxetan-3-yl)-1H-benzo[d]imidazol-2-yl)benzene-1,2-diol] | 0.1 to 1 µM
26 | COc1cc(-c2nc3c(N4CCOCC4)nccc3[nH]2)cc(O)c1O [Example 110, 3-methoxy-5-(4-morpholino-1H-imidazo[4,5-c]pyridin-2-yl)benzene-1,2-diol] | > 100 µM
27 | COc1cc(-c2nc3cc(C4CCC4)ccc3[nH]2)cc(O)c1O [Example 268, 5-(5-cyclobutyl-1H-benzo[d]imidazol-2-yl)-3-methoxybenzene-1,2-diol] | > 100 µM
28 | COc1cc(-c2nc3cc(C4CCN(C)CC4)ccc3[nH]2)cc(O)c1O [Example 68, 3-methoxy-5-(5-(1-methylpiperidin-4-yl)-1H-benzo[d]imidazol-2-yl)benzene-1,2-diol] | > 100 µM
29 | COc1cc(-c2nc3ccccc3n2C2CN(C)C2)c(C)c(O)c1O [Example 320, 6-methoxy-3-methyl-4-(1-(1-methylazetidin-3-yl)-1H-benzo[d]imidazol-2-yl)benzene-1,2-diol] | > 100 µM
30 | COc1cc(-c2nc3cc(N4CCN(C(=O)c5cccc(C)c5)CC4)ccc3[nH]2)cc(O)c1O [Example 154, (4-(2-(3,4-dihydroxy-5-methoxyphenyl)-1H-benzo[d]imidazol-5-yl)piperazin-1-yl)(m-tolyl)methanone] | 1 to 10 µM
31 | COc1cc(-c2nc3ccc(C(O)C(F)(F)F)cc3n2C2(C)COC2)c(F)c(O)c1O (stereo not drawn) [Example 280, 3-fluoro-6-methoxy-4-(1-(3-methyloxetan-3-yl)-6-(2,2,2-trifluoro-1-hydroxyethyl)-1H-benzo[d]imidazol-2-yl)benzene-1,2-diol] | 0.1 to 1 µM
32 | O=C(O)c1c(O)cc(-c2nc3ccncc3[nH]2)cc1F [Example 90, 2-fluoro-6-hydroxy-4-(3H-imidazo[4,5-c]pyridin-2-yl)benzoic acid] | 10 to 100 µM
33 | COc1cc(-c2nc3ccccc3n2C(C)C)c(C)c(O)c1O [Example 226, 4-(1-isopropyl-1H-benzo[d]imidazol-2-yl)-6-methoxy-3-methylbenzene-1,2-diol] | 1 to 10 µM
34 | COc1cc(-c2nc3ccccc3n2C2(C)COC2)c(C(F)(F)F)c(O)c1O [Example 315, 6-methoxy-4-(1-(3-methyloxetan-3-yl)-1H-benzo[d]imidazol-2-yl)-3-(trifluoromethyl)benzene-1,2-diol] | 10 to 100 µM
35 | COc1cc(-c2nc3cc(N4CCN(C(=O)CCCCN)CC4)ccc3n2COCC[Si](C)(C)C)cc(O)c1O [Example 128, 5-amino-1-(4-(2-(3,4-dihydroxy-5-methoxyphenyl)-1-((2-(trimethylsilyl)ethoxy)methyl)-1H-benzo[d]imidazol-5-yl)piperazin-1-yl)pentan-1-one] | 10 to 100 µM
36 | COc1cc(-c2nc3ccc(N4CCOCC4=O)cc3n2C2(C)COC2)c(F)c(O)c1O [Example 277, 4-(2-(2-fluoro-3,4-dihydroxy-5-methoxyphenyl)-1-(3-methyloxetan-3-yl)-1H-benzo[d]imidazol-6-yl)morpholin-3-one] | 1 to 10 µM
